Results on 36 compounds are retold here after patent publication US20020010182A1, “Piperazine derivatives as tachykinin antagonists” (FUJISAWA PHARMACEUTICAL CO., LTD., priority 1995, published 2002).

The target of one series is T1, h-NK1 receptors (Homo sapiens, UniProt P25103).
T1 construct: expressed in transfected cells; host or cells: CHO cells (permanent expression), crude cell membranes
Briefly: Evaluation of NK1 antagonist transport efficiency to the central nervous system using a h-NK1 receptor binding assay. Conditions: 5 min, brain extract of male SD rats 5 min after i.v. injection of test compound, CHO cell membranes expressing h-NK1, read-out: inhibition rate of 125I-BH-Substance P binding to h-NK1 receptors. The method, then:
A. Evaluation of NK1 Antagonist Transport Efficiency to the Cental Nervous System Using a h-NK1 Receptor Binding Assay
(1) Administration of Test Compound and Extraction of the Compound From Brain
Male SD rats were given an i.v. injection of a solution containing a test compound (1 mg/kg). 5 Min later the animals were anesthetized by ether, bled and perfused through the aorta ascendens with 20 ml of saline. The brain was rapidly removed, weighed and homogenized in 4 vol. ice-cold distilled water by using Polytoron (KINEMATICA). To extract the test compound, 500 μl of the homogenate, 100 μl of methanol, 500 μl of 0.1 N NaOH and 4 ml of ethyl acetate were mixed by shaking for 10 min at room temperature. The organic phase (2.5 ml) was recovered by centrifugation at 3,000 rpm for 10 min, dried and dissolved in dimethyl sulfoxide.
(2) h-NK1 Receptor Binding Assay
(a) Crude CHO Cell Membrane Preparation
CHO cells permanently expressing h-NK1 receptors were harvested and homogenized with a Dounce homogenizer at 4° C. in a buffer (0.25 M sucrose, 25 mM Tris-HCl (pH 7.4), 10 mM MgCl2, 1 mM EDTA, 5 μg/ml p-APMSF). The homogenate was centrifuged (500×g, 10 min), and the pellet was resuspended in the same buffer, homogenized, and centrifuged. The two supernatants were combined and centrifuged (100,000×g, 1 hour). The crude cell membranes thus isolated were resuspended in a buffer (25 MM Tris-HCl (pH 7.4), 10 mM MgCl2, 1 mM EDTA, 5 μg/ml p-APMSF) and stored at −80° C. until use.
(b) ^125I-BH-Substance P Binding to the Prepared Membrane
Cell membranes (6 μg/ml) were incubated with ^125I-BH-Substance P (0.1 nM) with or without the extracted compounds in 0.25 ml of a medium (50 mM Tris-HCl (pH 7.4), 5 mM MnCl2, 20 μg/ml chymrostatin, 40 μg/ml bacitracin, 4 μg/ml leupeptin, 5 μg/ml p-APMSF, 200 μg/ml BSA) at 22° C. for 90 min. At the end of the incubation period, the contents were quickly filtered through a Blue Mat 11740 filter (pretreated with 0.1% polyethylenimine for 3 hours prior to use) by using SKATRON Cell Harvester. The filter was then washed with a washing buffer (50 mM Tris-HCl (pH 7.4), 5 mM MnCl2) . The radioactivity was counted by using an auto gamma counter (Packard RIASTAR 5420A). All data presented are specific binding defined as that displaceable by 3 μM unlabeled Substance P.

Counter-ions that a name gives are not always drawn.

T1 sequence (P25103 whole entry): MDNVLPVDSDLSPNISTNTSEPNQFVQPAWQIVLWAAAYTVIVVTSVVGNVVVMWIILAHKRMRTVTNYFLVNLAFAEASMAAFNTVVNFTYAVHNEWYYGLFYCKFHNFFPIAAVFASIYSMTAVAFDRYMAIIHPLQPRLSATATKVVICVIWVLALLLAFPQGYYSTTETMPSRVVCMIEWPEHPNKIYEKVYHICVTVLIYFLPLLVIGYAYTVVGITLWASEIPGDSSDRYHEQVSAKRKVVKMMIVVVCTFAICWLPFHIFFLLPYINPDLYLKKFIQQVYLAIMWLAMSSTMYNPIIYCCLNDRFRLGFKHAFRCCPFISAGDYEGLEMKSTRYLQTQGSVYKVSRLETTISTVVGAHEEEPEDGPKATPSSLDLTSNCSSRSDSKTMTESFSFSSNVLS

On to `Cc1ccc(C[C@@H]2CN(C/C=C/CNCc3cccnc3)CCN2C(=O)c2cc(C(F)(F)F)cc(C(F)(F)F)c2)cc1C` [82-(5), (2R)-1-[3,5-Bis(trifluoromethyl)benzoyl]-2-(3,4-dimethylbenzyl)-4-[(E)-N-(3-pyridylmethyl)-4-amino-2-butenyl]piperazine trihydrochloride], for which the inhibition at 1 mg/kg at h-NK1 receptors was > 80%.
With `O=C(c1cc(C(F)(F)F)cc(C(F)(F)F)c1)N1CCN(CCCN2CCSCC2)C[C@H]1Cc1ccc(Cl)c(Cl)c1` [Example 44-(4), (2R)-1-[3,5-Bis(trifluoromethyl)benzoyl]-2-(3,4-dichlorobenzyl) -4-(3-thiomorpholinopropyl) piperazine dihydrochloride], the inhibition at 1 mg/kg on h-NK1 receptors was > 80%.
`CC(=O)c1cccc(C(=O)N2CCN(C(=O)c3cc(C(F)(F)F)cc(C(F)(F)F)c3)[C@H](Cc3c[nH]c4ccccc34)C2)c1` [Example 16-(1), (2R)-4-(3-Acetylbenzoyl)-1-[3,5-bis(trifluoromethyl)benzoyl]-2-(1H-indol-3-ylmethyl)piperazine]: the melting point fell in the range of 186 to 187.5 °C.
For the compound `Cl.O=C(CN1CCN(C(=O)c2cc(C(F)(F)F)cc(C(F)(F)F)c2)[C@H](Cc2c[nH]c3ccccc23)C1)N1CCN(C2CCCC2)CC1`, the melting point is 270 °C (dec.).
Take `Cl.Cl.Cl.O=C(c1cc(C(F)(F)F)cc(C(F)(F)F)c1)N1CCN(CCCN2CCN(C3CCCCC3)CC2)C[C@H]1Cc1c[nH]c2ccccc12`: the melting point is 250 °C (dec.).
As for `Cl.Cl.O=C(c1cc(C(F)(F)F)cc(C(F)(F)F)c1)N1CCN(CC#CCN2CCSCC2)C[C@H]1Cc1cccc2ccccc12`, the melting point is 191 °C (dec.).
The compound `Cc1ccc(C[C@@H]2CN(CC#CCN3CCOC(CF)C3)CCN2C(=O)c2cc(C(F)(F)F)cc(C(F)(F)F)c2)cc1C.Cl.Cl` (stereo partly drawn) showed a melting point of 175 to 180 °C.
Regarding `CC(=O)c1ccc(C(=O)N2CCN(C(=O)c3cc(C(F)(F)F)cc(C(F)(F)F)c3)[C@H](Cc3ccc(C)c(C)c3)C2)cc1` [Example 11, (2R)-4-(4-acetylbenzoyl)-1-[3,5-bis (trifluoromethyl)benzoyl]-2-(3,4-dimethylbenzyl)piperazine], the inhibition at 1 mg/kg on h-NK1 receptors was > 80%.
`Cc1ccc(C[C@@H]2CN(CCCc3cnn(C)c3)CCN2C(=O)c2cc(C(F)(F)F)cc(C(F)(F)F)c2)cc1C.Cl` registered a melting point of 163 to 165 °C.
Same read-out and setting: the result for `Cl.Cl.O=C(c1cc(C(F)(F)F)cc(C(F)(F)F)c1)N1CCN(CC#CCN2CCOCC2)C[C@H]1Cc1c[nH]c2ccccc12` reads 165 to 169 °C; that for `Cc1ccc(C[C@@H]2CN(C/C=C/CN3CCSCC3)CCN2C(=O)c2cc(C(F)(F)F)cc(C(F)(F)F)c2)cc1C.Cl.Cl`, > 230 °C.
With `Cc1ccc(C[C@@H]2CN(CC#CCN3CCSCC3)CCN2C(=O)c2cc(C(F)(F)F)cc(C(F)(F)F)c2)cc1C.Cl.Cl`, the melting point is 162 to 170 °C.
On to `Cc1ccc(C[C@@H]2CN(CCN3CCCOCC3)CCN2C(=O)c2cc(C(F)(F)F)cc(C(F)(F)F)c2)cc1C` [Example 67-(6), (2R)-1-[3,5-Bis(trifluoromethyl)benzoyl]-2-(3,4-dimethylbenzyl)-4-(2-homomorpholinoethyl) piperazine dihydrochloride], for which, on h-NK1 receptors, the inhibition at 1 mg/kg was > 80%.
In turn, `Cc1ccc(C[C@@H]2CN(CC#Cc3cccnc3)CCN2C(=O)c2cc(C(F)(F)F)cc(C(F)(F)F)c2)cc1C.Cl.Cl` had a melting point of 140 to 150 °C.
Take `Cl.Cl.Cl.O=C(c1cc(C(F)(F)F)cc(C(F)(F)F)c1)N1CCN(CCCN2CCC(N3CCCCC3)CC2)C[C@H]1Cc1ccc(Cl)c(Cl)c1`: the melting point is > 200 °C.
In the case of `Cc1ccc(C[C@@H]2CN(CC#CCN3CCN(C4CCCCC4)CC3)CCN2C(=O)c2cc(C(F)(F)F)cc(C(F)(F)F)c2)cc1C.Cl.Cl.Cl`, the melting point is 175 to 190 °C.
Still for that read-out and setting: for `Cl.Cl.O=C(c1cc(C(F)(F)F)cc(C(F)(F)F)c1)N1CCN(CCN2CCOCC2)C[C@H]1Cc1c[nH]c2ccccc12` the value was 170 to 176 °C; for `Cl.Cl.O=C(c1cc(C(F)(F)F)cc(C(F)(F)F)c1)N1CCN(CCCN2CC=CCC2)C[C@H]1Cc1c[nH]c2ccccc12`, > 200 °C.
For `Cc1ccc(C[C@@H]2CN(C/C=C/CN3CCOCC3(C)C)CCN2C(=O)c2cc(C(F)(F)F)cc(C(F)(F)F)c2)cc1C.Cl.Cl`, the melting point is > 230 °C.
For the compound `Cl.Cl.O=C(c1cc(C(F)(F)F)cc(C(F)(F)F)c1)N1CCN(C/C=C/CN2CCSCC2)C[C@H]1Cc1ccc2ccccc2c1`, the melting point is > 230 °C.
Compound `Cl.Cl.O=C(c1cc(C(F)(F)F)cc(C(F)(F)F)c1)N1CCN(CC#CCN2CCSCC2)C[C@H]1Cc1ccc2ccccc2c1` registered a melting point of 152 to 156 °C.
Take `Cl.O=C(CN1CCN(C(=O)c2cc(C(F)(F)F)cc(C(F)(F)F)c2)[C@H](Cc2c[nH]c3ccccc23)C1)c1cccc(F)c1`: the melting point was 195 °C (dec.).
In turn, `COC[C@@H]1CCCN1CC#CCN1CCN(C(=O)c2cc(C(F)(F)F)cc(C(F)(F)F)c2)[C@H](Cc2ccc(C)c(C)c2)C1.Cl.Cl` registered a melting point of 195 to 197 °C.
The same measure, in the same setting: for `CN(C)c1ccc(C(=O)CN2CCN(C(=O)c3cc(C(F)(F)F)cc(C(F)(F)F)c3)[C@H](Cc3c[nH]c4ccccc34)C2)cc1` [Example 8, (2R)-1-[3,5-bis (trifluoromethyl)benzoyl]-4-(4-dimethylaminophenylcarbonylmethyl)-2-(1H-indol-3-ylmethyl]piperazine] the value was 185 °C (dec.); for `Cl.O=C(CN1CCN(C(=O)c2cc(C(F)(F)F)cc(C(F)(F)F)c2)[C@H](Cc2c[nH]c3ccccc23)C1)N1CCN(c2ccc(F)cc2)CC1`, 183 °C (dec.); for `COCC1COCCN1CC#CCN1CCN(C(=O)c2cc(C(F)(F)F)cc(C(F)(F)F)c2)[C@H](Cc2ccc(C)c(C)c2)C1.Cl.Cl` (stereo partly drawn), 140 to 155 °C.
In the case of `Cl.Cl.O=C(c1cc(C(F)(F)F)cc(C(F)(F)F)c1)N1CCN(CCCN2CCOCC2)C[C@H]1Cc1c[nH]c2ccccc12`, the melting point was 265 °C (dec.).
For `Cl.Cl.O=C(c1cc(C(F)(F)F)cc(C(F)(F)F)c1)N1CCN(CC#CCN2CCSCC2)C[C@H]1Cc1ccc(C(F)(F)F)cc1`, the melting point was 173 °C (dec.).
As for `Cl.Cl.O=C(c1cc(C(F)(F)F)cc(C(F)(F)F)c1)N1CCN(CCCN2CC3CCC(CC3)C2)C[C@H]1Cc1ccc(Cl)c(Cl)c1`, the melting point was 150 °C (dec.).
Consider `Cc1ccc(C(=O)CN2CCN(C(=O)c3cc(C(F)(F)F)cc(C(F)(F)F)c3)[C@H](Cc3c[nH]c4ccccc34)C2)cc1C.Cl`, for which the melting point is 166 °C (dec.).
Still for that read-out and setting: the result for `O=C(c1cc(C(F)(F)F)cc(C(F)(F)F)c1)N1CCN(CCCC2(c3ccc(F)cc3)OCCO2)C[C@H]1Cc1c[nH]c2ccccc12` [Example 38, (2R)-4-[4,4-ethylenedioxy-4-(4-fluorophenyl)butyl]-1-[3,5-bis (trifluoromethyl)benzoyl]-2-(1H-indol-3-ylmethyl) piperazine] reads 145 to 146 °C; that for `Cc1ccc(C(=O)CN2CCN(C(=O)c3cc(C(F)(F)F)cc(C(F)(F)F)c3)[C@H](Cc3c[nH]c4ccccc34)C2)cc1.Cl`, 203 °C (dec.); that for `CC(=O)c1ccccc1C(=O)N1CCN(C(=O)c2cc(C(F)(F)F)cc(C(F)(F)F)c2)[C@H](Cc2c[nH]c3ccccc23)C1` [Example 16-(2), (2R)-4-(2-Acetylbenzoyl)-1-[3,5-bis(trifluoromethyl)benzoyl]-2-(1H-indol-3-ylmethyl)piperazine], 190 to 192 °C.
`Cl.O=C(CN1CCN(C(=O)c2cc(C(F)(F)F)cc(C(F)(F)F)c2)[C@H](Cc2c[nH]c3ccccc23)C1)c1ccc(F)c(F)c1`: the melting point was 171 °C (dec.).
Regarding `Cc1ccc(C[C@@H]2CN(Cc3ccc([N+](=O)[O-])cc3)CCN2C(=O)c2cc(C(F)(F)F)cc(C(F)(F)F)c2)cc1C.Cl.Cl`, the melting point is 140 °C (dec.).
Take `Cc1ccc(C[C@@H]2CN(CCCc3cccnc3)CCN2C(=O)c2cc(C(F)(F)F)cc(C(F)(F)F)c2)cc1C.Cl.Cl`: the melting point lay in the range of 163 to 168 °C.
